Results from patent US20230115176A1 (Ra Pharmaceuticals, Inc., priority 2019, published 2023).
pIC50, pKd: −log10 of the molar value. In brackets after ≈: the same amount, converted by molar mass.

Columns and labels:
Human C5 [1] = biological target: T1, Human C5 (Homo sapiens, UniProt P01031); test: Hemolysis assay, luminescent, classical complement pathway (Example 4, Table 7); format: cell-based; conditions: sheep EA cells, 1.5% C5-depleted human serum, 0.5 nM human C5, luminescence readout
T1 construct: purchased Complement Technology
Source text: Numbers in parenthesis following the compound number indicate alternate enantiomers (as distinguished by retention time during chromatographical separation).

[2] = Kinetic solubility in PBS pH 7.4, HPLC-UV (Example 21, Table 27); format: physicochemical; conditions: phosphate buffered saline, aqueous buffer, kinetic from dmso stock, 0.5 M PBS, shaken minimum 24 h at approximately 25° C., HPLC-UV 270 nm
Method in brief: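 Supernatant measured by HPLC-UV (270 nm) against a DMSO calibration curve of 15.6–500.0 μM after filtration. Triplicate samples were made from 10 mM DMSO stock in 0.05 M phosphate buffer pH 7.4 (5% DMSO) and shaken at least 24 h at about 25 °C.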

[3] = biological target: human C5 complement protein (Homo sapiens, UniProt P01031); test: Surface plasmon resonance (SPR), immobilized human C5, 37° C. (Example 27, Table 31); format: binding; conditions: lowest value obtained where a range of concentrations was analyzed (Table 31)
Human C5 [4] = biological target: T1, Human C5; test: Red blood cell (RBC) hemolysis assay, luminescent (Example 28, Table 32); format: cell-based; conditions: sheep EA cells, 1.5% C5-depleted human serum, 0.5 nM human C5, 1 hour at 37° C., luminescence (Table 32)
purified human C5 = purified human C5 (Homo sapiens, UniProt P01031); test: Red blood cell hemolysis assay, optical, absorbance 412 nm (Example 3, Table 6); format: cell-based; conditions: antibody-sensitized sheep erythrocytes, 1.5% human C5 depleted sera, 0.5 nM human C5; average where replicates
Procedure: Experiments were carried out using a red blood cell (RBC) hemolysis assay to assess compound inhibition of RBC lysis. […] The assay was carried out using 1.5% human C5 depleted sera and 0.5 nM purified human C5.
GVB++ buffer (Complement Technology, Tyler, Tex.) was heated at 37° C. for a minimum of 20 minutes. The human C5 depleted sera and purified human C5 were rapidly thawed at 37° C. and then stored on ice or wet ice, respectively. The compound stock (10 mM, DMSO) was serially diluted in 100% DMSO to obtain ten 6-fold dilutions before addition of GVB++. Sera dilution was prepared by adding 5 mL of GVB++ to a 15 mL conical tube, removing 600 μL of the GVB++ and adding 600 μL of the 100% sera. The tube was mixed by inverting three times. A volume of 25 μL of the diluted sera was added to each well so that the final concentration of sera in the well was 1.5%. C5 dilution was prepared by adding 5 mL of GVB++ to a 15 mL conical tube, removing 4 μL of the GVB++ and adding 4 μL of the C5 stock. The tube was mixed by inverting three times. A volume of 25 μL was added to each well so that the final amount of C5 was 0.5 nM in each well. The antibody-sensitized sheep erythrocytes (EAs) were centrifuged at 1,000× gravity at 22° C. for 3 minutes. The supernatant was pipetted off without disrupting the pellet. The pellet was then resuspended in GVB++ with the same volume removed. Resuspended EAs were mixed by gently inverting the tube.
Five controls were run on each plate: (1) EAs only=100 μL EAs+50 μL GVB++ with 4% DMSO+50 μL GVB++; (2) EA+Sera=100 μL EAs+50 μL GVB++ with 4% DMSO+25 μL Sera dilution+25 μL GVB++; (3) EA+C5=100 μL EAs+50 μL GVB++ with 4% DMSO+25 μL C5 dilution+25 μL GVB++; (4) EA+Sera+C5=100 μL EAs+50 μL GVB++ with 4% DMSO+25 μL Sera dilution+25 μL C5; (5) GVB++ Only=200 μL GVB++. Other wells included: GVB++ with 4% DMSO=20 μL DMSO+480 μL GVB++. All samples were analyzed in duplicate. The compound dose response curve was generated using samples prepared with 100 μL EA+50 μL compound dilution+25 μL C5 dilution+25 μL sera dilution.
Test plates were prepared by adding 100 μL of EAs, 50 μL of compound dilution, 25 μL of sera dilution, and 25 μL of C5 dilution to individual wells of a 96-well tissue culture-treated clear microtitre plate (USA Scientific, Ocala, Fla.) and resuspending by pipetting up and down three times. The samples were incubated at 37° C. for one hour. At the completion of the incubation, the plates were centrifuged at 1,000× gravity for 3 minutes. 100 μl of supernatant were transferred to a new plate and the absorbance was read at 412 nm. Data was fit with a log-logit formula producing a dose-response curve and IC50.
“IC50” refers to the half maximal inhibitory concentration, where the value is the concentration of the inhibitor needed to reduce red blood cell hemolysis by half. Where replicate analysis was conducted, average IC50 values are provided along with standard deviation (SD) values.

[5] = Permeability assay, unidirectional transport, Papp (Example 30, Table 34); format: in vitro ADME, canine; conditions: dog, pH 7.4; MDCK-WT cell monolayers, A-to-B, 3 μM test compound, 37° C., duplicate determinations
Procedure: (§1) Permeability assays were carried out to provide a preliminary indication of suitability for oral dosing and compound permeability across the blood brain barrier. Unidirectional and bidirectional compound transport across Madin Darby canine kidney (MDCK) cell monolayers was assessed. For unidirectional transport assessment, transport across MDCK wild type (MDCK-WT) cell monolayers was assessed. For bidirectional transport, transport across MDCK-MDR1 cell monolayers was assessed. MDCK-MDR1 cells express the MDR1 gene encoding the P-glycoprotein (P-gp) efflux protein.
(§2) MDCK-WT and MDCK-MDR1 cells were plated onto permeable polycarbonate supports in 12-well Costar transwell plates and allowed to grow and differentiate for 3 days. After 3 days in culture, the culture medium (DMEM supplemented with 10% FBS) was removed from both sides of the transwell inserts and cells were rinsed with warm HBSS. After the rinse step, the chambers were filled with warm transport buffer (HBSS containing 10 mM HEPES, 0.25% BSA, pH 7.4) and the plates were pre-incubated at 37° C. for 30 minutes prior to TEER (Trans Epithelial Electric Resistance) measurements.
(§3) The buffer in the donor chamber (apical side for A-to-B assay, basolateral side for B-to-A assay) was removed and replaced with the working solution (3 μM test compound and 10 μM for control compounds in transport buffer). The plates were then placed at 37° C. under light agitation. At designated time points (30, 60 and 90 min), an aliquot of transport buffer from the receiver chamber was removed and replenished with fresh transport buffer. Samples were quenched with ice-cold ACN containing internal standard and then centrifuged to pellet protein. Resulting supernatants were further diluted with 50/50 ACN/H2O (Atenolol diluted in just water) and submitted for LC-MS/MS analysis. Apparent permeability (Pap) values were calculated from duplicate determinations. Atenolol and propranolol were tested as low and […] permeability references.
Papp values indicate extent of compound permeation across monolayers.

[6] = tested on: P-glycoprotein (P-gp, MDR1); test: Permeability assay, bidirectional transport, efflux ratio (Example 30, Table 34); format: in vitro ADME, canine; conditions: dog, MDCK-MDR1, pH 7.4; read-out: MDCK-MDR efflux ratio
Procedure: as §1, §2, §3
Efflux ratios were calculated for bidirectional transport across MDCK-MDR1 cell monolayers as an indication of compound efflux by P-gp. The efflux ratio is calculated using the ratio of mean Papp values for B to A transport to mean Papp values for A to B transport [Papp(BA)/Papp(AB)].

Human C5 [7] = biological target: T1, Human C5; test: Surface plasmon resonance (SPR), compounds on immobilized human C5 (Example 2, Table 5); format: binding; conditions: lowest value where a range of compound concentrations were analyzed
Procedure: Surface plasmon resonance (SPR) technology was used to evaluate affinity, specificity, and kinetics of interactions between compounds and complement protein C5 in real time without the need for labeling.
SensiQ FE SPR system (SensiQ Technologies, Oklahoma City, Okla.) was used to provide sensitive and accurate detection of binding of small molecules to the very large C5 protein (MW=195,000 Da). The chip was prepared by preconditioning the sensor according to the protocol of the SensiQ FE using 10 mM HCl, 50 mM NAOH and 0.1% SDS. The sensor chip was activated by using a mixture of fresh EDAC (1-ethyl-3-(-3-dimethylaminopropyl) carbodiimide) (Sigma Co., St. Louis, Mo.) and NHS (N-hydroxy succinimide) (Sigma Co., St. Louis, Mo.). Human C5 was surface immobilized to a Pioneer Biosensor chip via random amine coupling (>12,000 RU) which makes use of the N-terminus and ε-amino groups of lysine residues of the protein ligand. Immobilization was done by injecting 30-40 μg/ml C5 in 10 mM NaAc pH 4.5 onto designated channels at a rate of 10 μL/minute for 12 minutes, targeting RL>12000 RU for small molecules.
Compounds were diluted in DMSO in a format of 100-fold final concentration and 3-fold serial dilution (5 or 6 dilutions). The 100-fold compounds were transferred to one-fold DMSO-free assay buffer in the 96-well test plate. The compound solution was injected at a rate of 60 μL/minute for 30-60 seconds, followed by 60-90 seconds dissociation time, buffer flushing and/or priming. Blank solution (1% DMSO assay buffer) was run for every 6 injections of compounds. Double reference by subtracting both blank channel and reference channel was applied for data processing. Titration of C5 binding compounds to the C5-immobilized biosensor chip surface led to interactions between C5 and potential binders, and the resulting changes of surface refractive index were sensitively measured by the system.
SPR data were analyzed with the managing software provided by SensiQ and equilibrium dissociation constant (KD) values were determined for each compound. Where a range of compound concentrations were analyzed, the lowest value obtained is presented.

Human C5 [8] = biological target: T1, Human C5; test: Red blood cell (RBC) hemolysis assay, luminescent (Example 13, Table 22); format: cell-based; conditions: sheep EA cells, […] C5-depleted human serum, 0.5 nM human C5, 1 hour 37° C., luminescence
Source text: Compound CU0136 is a racemic mixture of Compound CU0186 and CU0187. Numbers in parenthesis following compound numbers indicate alternate enantiomers (as distinguished by retention time during chromatographical separation).

Chain of human C5 complement protein (P01031 19-1676): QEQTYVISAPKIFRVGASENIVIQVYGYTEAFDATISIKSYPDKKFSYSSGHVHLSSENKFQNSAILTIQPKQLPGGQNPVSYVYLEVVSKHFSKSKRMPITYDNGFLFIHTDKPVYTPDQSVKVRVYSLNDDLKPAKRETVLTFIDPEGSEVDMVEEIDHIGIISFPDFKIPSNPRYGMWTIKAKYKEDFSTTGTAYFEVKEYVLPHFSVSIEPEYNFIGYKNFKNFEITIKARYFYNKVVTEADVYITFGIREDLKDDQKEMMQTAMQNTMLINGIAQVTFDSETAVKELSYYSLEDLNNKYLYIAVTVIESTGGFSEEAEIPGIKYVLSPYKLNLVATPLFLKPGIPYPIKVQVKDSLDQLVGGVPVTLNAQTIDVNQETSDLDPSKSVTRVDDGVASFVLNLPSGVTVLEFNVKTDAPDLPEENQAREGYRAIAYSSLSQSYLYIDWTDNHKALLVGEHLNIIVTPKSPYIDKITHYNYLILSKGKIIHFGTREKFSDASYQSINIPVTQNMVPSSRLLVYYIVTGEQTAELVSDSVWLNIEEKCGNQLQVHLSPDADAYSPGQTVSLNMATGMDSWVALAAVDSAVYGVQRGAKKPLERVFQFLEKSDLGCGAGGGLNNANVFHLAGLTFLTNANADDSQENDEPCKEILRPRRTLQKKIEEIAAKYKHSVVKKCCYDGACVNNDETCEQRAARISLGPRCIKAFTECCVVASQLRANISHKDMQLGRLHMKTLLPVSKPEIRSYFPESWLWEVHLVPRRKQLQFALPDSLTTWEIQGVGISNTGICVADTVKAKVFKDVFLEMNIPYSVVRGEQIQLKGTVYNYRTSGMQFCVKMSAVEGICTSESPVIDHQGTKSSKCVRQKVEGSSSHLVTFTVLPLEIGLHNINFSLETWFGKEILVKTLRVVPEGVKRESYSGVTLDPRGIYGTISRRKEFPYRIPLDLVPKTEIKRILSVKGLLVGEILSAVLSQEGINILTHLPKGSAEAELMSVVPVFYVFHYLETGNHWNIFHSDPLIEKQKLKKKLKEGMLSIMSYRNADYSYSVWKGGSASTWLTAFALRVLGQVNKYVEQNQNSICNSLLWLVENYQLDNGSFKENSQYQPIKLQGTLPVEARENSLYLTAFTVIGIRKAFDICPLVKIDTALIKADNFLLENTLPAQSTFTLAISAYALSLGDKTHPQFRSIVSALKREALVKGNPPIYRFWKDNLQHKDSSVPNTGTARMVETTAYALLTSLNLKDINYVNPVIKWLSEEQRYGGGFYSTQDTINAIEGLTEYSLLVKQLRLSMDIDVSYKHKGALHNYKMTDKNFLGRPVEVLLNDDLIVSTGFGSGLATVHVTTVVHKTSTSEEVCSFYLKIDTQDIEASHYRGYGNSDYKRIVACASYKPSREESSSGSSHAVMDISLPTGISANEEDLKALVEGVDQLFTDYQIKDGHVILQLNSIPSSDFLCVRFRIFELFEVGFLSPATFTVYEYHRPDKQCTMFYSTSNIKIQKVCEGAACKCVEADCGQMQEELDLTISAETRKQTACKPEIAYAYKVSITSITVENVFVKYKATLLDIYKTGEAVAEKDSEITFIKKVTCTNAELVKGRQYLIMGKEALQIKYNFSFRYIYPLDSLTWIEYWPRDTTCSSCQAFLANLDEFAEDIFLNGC
T1 sequence (P01031 19-1676): as above
Chain of purified human C5 (P01031 19-1676): as above

CCCCCOc1cc(NC(=O)N2CCC[C@@H]2c2ccccc2Cl)c(CNC(=O)CCl)cc1OC [SM0203]
pIC50 (Human C5 [1]): 6.59

COc1ccc(N2CC[C@H](C)N(Cc3cccc4c3ccn4CC(=O)N(C)C)C2=O)cc1OCCCC1CC1 [SC0174]
solubility kinetic [2]: 40 µM (≈ 21.3 µg/mL) | pKd [3]: 9.11 | pIC50 (Human C5 [4]): 8.37

CCCCOc1cc(NC(=O)N[C@@H](CO)c2ccccc2)ccc1OC [SM0035]
pIC50 (purified human C5): 5.93 | pIC50 (Human C5 [1]): 6.48

CCCCCOc1cc(N2CC[C@H](C)N(Cc3ccnc4c3c(Cl)cn4CC(=O)N3CCNC(=O)C3)C2=O)ccc1OC [SC0106]
solubility kinetic [2]: 119 µM (≈ 72.7 µg/mL) | pKd [3]: 10.10 | pIC50 (Human C5 [4]): 8.96

CCCCCOc1cc(N2CCCN(Cc3ccnc4c3c(Cl)cn4CC(=O)N3CC4CC(C3)O4)C2=O)ccc1OC [CU0506]
Papp A→B at 3 μM [5]: 21.1 ×10⁻⁶ cm/s | efflux ratio at 3 μM [6]: 59

COc1ccc(NC(=O)N[C@H]2COC(C)(C)Oc3c(OC)cccc32)cc1OCCCC(C)C [SM0218]
pIC50 (Human C5 [1]): 7.31

CCCCCOc1cc(N2CC(CO)CN(Cc3ccc(CNC(=O)c4cocn4)cc3OC)C2=O)ccc1OC (centres unmarked) [SC0104]
solubility kinetic [2]: < 10 µM | pKd [3]: 9.05 | pIC50 (Human C5 [4]): 8.96

CCCCCOc1cc(N2CC[C@H](C)N(Cc3cccc4c3c(Cl)cn4CC(=O)N3CCOC(CN(C)C)C3)C2=O)ccc1OC (some centres unmarked) [SC0154]
solubility kinetic [2]: 315 µM (≈ 206 µg/mL) | pKd [3]: 10.40 | pIC50 (Human C5 [4]): 8.64

CCCCCOc1cc(N2CC(CO)CN(Cc3ccc(CC(=O)N(C)C)cc3OC)C2=O)ccc1OC (centres unmarked) [SC0172]
solubility kinetic [2]: 490 µM (≈ 259 µg/mL) | pKd [3]: 8.65 | pIC50 (Human C5 [4]): 8.42

COc1ccc(NC(=O)N[C@@H](CO)c2ccccc2OC)cc1OCCCC(C)C [SM0002]
pKd (Human C5 [7]): 7.85 | pIC50 (purified human C5): 7.66 | pIC50 (Human C5 [1]): 7.92

CCCCCOc1cc(NC(=O)N(CC(=O)N(C)C)Cc2cc(F)ccc2OC)ccc1OC [SM0211]
pIC50 (Human C5 [1]): 5.72

COc1ccc(NC(=O)NCc2ccccc2OC(F)F)cc1OCCCC(C)C [SM0104]
pKd (Human C5 [7]): 6.68 | pIC50 (Human C5 [1]): 6.25

CCCCCOc1cc(N2CC(CO)CN(Cc3ccc(CC(=O)N4CCOCC4)cc3OC)C2=O)ccc1OC (centres unmarked) [SC0183]
solubility kinetic [2]: > 500 µM | pKd [3]: 8.41 | pIC50 (Human C5 [4]): 8.28

CCCCCOc1cc(N2CCCN(Cc3ccnc4c3c(Cl)cn4CC(=O)N(C)C)C2=O)cnc1OC [CU0616]
Papp A→B at 3 μM [5]: 29 ×10⁻⁶ cm/s | efflux ratio at 3 μM [6]: 18

CCCCCOc1cc(NC(=O)N(CC(=O)NCC2CC(=O)N(C)C2)Cc2cc(F)ccc2OC)ccc1OC (centres unmarked) [SM0208]
pIC50 (Human C5 [1]): 6.04

CCCCCOc1cc(NC(=O)N(CC(=O)O)Cc2cc(F)ccc2OC)ccc1OC [SM0204]
pIC50 (Human C5 [1]): 6.12

CCCCCOc1cc(N2CC[C@H](C)N(Cc3cccc4c3c(Cl)cn4CC(=O)N3CCCOCC3)C2=O)ccc1OC [SC0128]
solubility kinetic [2]: < 10 µM | pKd [3]: 10.70 | pIC50 (Human C5 [4]): 8.77

CCCCCOc1cc(NC(=O)NCc2ccc(Br)cc2OC)ccc1OC [SM0219]
pIC50 (Human C5 [1]): 6.62

CCCCCOc1cc(N2CCCN(Cc3ccnc4c3c(Cl)cn4CC(=O)N(C)C)C2=O)ccc1OC [CU0261]
pIC50 (Human C5 [8]): 7.96 | solubility kinetic [2]: 31 µM (≈ 16.8 µg/mL) | Papp A→B at 3 μM [5]: 26.1 ×10⁻⁶ cm/s | efflux ratio at 3 μM [6]: 17

CCCCCOc1cc(N2CC(C)CN(Cc3ccc(CC(=O)N4CCNC(=O)C4)cc3OC)C2=O)ccc1OC (centres unmarked) [SC0163]
solubility kinetic [2]: 450 µM (≈ 255 µg/mL) | pKd [3]: 9.05 | pIC50 (Human C5 [4]): 8.55

CCCCCOc1cc(N2CC[C@H](C)N(Cc3cccc4c3c(C)cn4CC(=O)N(C)C)C2=O)ccc1OC [SC0107]
solubility kinetic [2]: 52 µM (≈ 27.8 µg/mL) | pKd [3]: 9.44 | pIC50 (Human C5 [4]): 8.96

COc1cc(CC(=O)N2CCOCC2)ccc1CN1CCCN(c2ccc(OC)c(OCCCC(C)(F)F)c2)C1=O [CU0145]
pIC50 (Human C5 [8]): 7.82 | solubility kinetic [2]: 278 µM (≈ 160 µg/mL) | Papp A→B at 3 μM [5]: 16.8 ×10⁻⁶ cm/s | efflux ratio at 3 μM [6]: 83

CCCCCOc1cc(NC(=O)N(CCOCc2cn(C)cn2)Cc2cc(F)ccc2OC)ccc1OC [SM0217]
pIC50 (Human C5 [1]): 6.68
